Patent publication US8574607B2, “Spiroheterocyclic thiofuran dione derivatives” (Syngenta Crop Protection, Inc., priority 2009, dated 2013)
Read-outs that look alike come from different tables or passages of the source.

Key:
[1] = test system: Aphis craccivora (Cowpea Aphid); assay: Example B8: Aphis craccivora, mixed population, systemic/feeding (roots of pea seedlings in test solution); format: in vivo; details: 144 h, read-out: activity (mortality)
Source text: (§1) Activity Against Aphis craccivora (Cowpea Aphid)
(Mixed Population, Systemic/Feeding)
6 days later, samples are checked for mortality.

[2] = test system: Myzus persicae (Green Peach Aphid); assay: Example B10: drench activity against Myzus persicae (pea seedlings in field soil); details: 168 h, read-out: drench activity (mortality)
[3] = test system: Myzus persicae (Green Peach Aphid); assay: Example B1: Myzus persicae, mixed population, feeding/residual contact activity, preventive (sprayed sunflower leaf discs); details: foliar, 144 h, read-out: activity (mortality)
[4] = test system: Aphis craccivora (Cowpea Aphid); assay: whole plant or invertebrate; details: in Phaseolus vulgaris, 120 h, read-out: translaminar activity (mortality)
[5] = test system: Tetranychus urticae (Two-Spotted Spider Mite); details: foliar, 192 h, read-out: activity (egg, larval and adult mortality)
[6] = test system: Myzus persicae (Green Peach Aphid); details: 144 h, read-out: activity (mortality)
[7] = test system: Nilaparvata lugens (Brown Rice Planthopper); assay: Example B6: Nilaparvata lugens, larvicide, feeding/contact (rice seedlings); details: in Oryza sativa, read-out: activity (mortality, growth regulation, effects on F1 generation)
[8] = test system: Aphis craccivora (Cowpea Aphid); assay: whole plant or invertebrate; format: in vivo; details: 144 h, read-out: activity (mortality)
Source text: as §1
(Mixed Population, Contact/Feeding)
6 days after treatment, samples are checked for mortality.

CON1CCC2(CC1)OC(=O)C(c1c(C)cc(C)cc1C)=C2O [P2.3, 4-hydroxy-8-methoxy-3-(2,4,6-trimethyl-phenyl)-1-oxa-8-aza-spiro[4.5]dec-3-en-2-one]
> 80%: mortality at 25 ppm [1] | mortality at 25 ppm [2] | mortality at 400 ppm [3] | mortality at 400 ppm [4] | mortality at 400 ppm [5] | mortality at 400 ppm [6] | mortality at 400 ppm [7] | mortality at 400 ppm [8]
